Results on 15 compounds are retold here after patent publication US5981541A, “Substituted heterocycles as anti-tumor agents” (Rutgers, The State University of New Jersey, priority 1997, dated 1999).

What is called IC50 is the concentration at which inhibition is half-maximal.

Data set [1] concerns Human lymphoblast RPMI 8402 cells. Nature of the data set: MTT-microtiter plate tetrazolinium cytotoxicity assay (MTA), RPMI 8402. The format is cell-based. The protocol:
(§1) The IC50 of the drugs tested were determined by the MTT-microtiter plate tetrazolinium cytotoxicity assay (MTA) (Mosmann, T., J. Immunol. Methods 65:55-63 (1983); Denizot et al., J. Immunol. Methods 89:271-277 (1986)). Human lymphoblast RPMI 8402 cells and their camptothecin-resistant CPT-K5 cells (Andoh et al., Proc. Natl. Acad. Sci., USA 84:5565-5569 (1987)) were kindly provided by Dr. Toshiwo Andoh (Aichi Cancer Center Research Institute, Nagoya, Japan). The cell lines A2780 and its camptothecin-resistant derivative CPT-2000 were a generous gift of Dr. Jaulang Hwang (Institute of Molecular Biology, Academia sinica, Taiwan). Cells (2000 cells/well, seeded in […] growth medium) were grown in suspension at 37° C. in 5% CO2 and maintained by regular passage in RPMI medium supplemented with 10% heat inactivated fetal bovine serum, L-glutamine (2 mM), penicillin (100 U/mi), and streptomycin (0.1 mg/ml). The cells were exposed continuously for 4 days to drug concentrations ranging from 100 ug/ml to 1.0 ng/ml in ten fold dilutions, and assayed at the end of the fourth day. Each concentration and the no drug control were repeated at least twice in 6 replica wells. The results were plotted and the IC50 then measured. The drug sensitive human epidermoid carcinoma KB 3-1 cell line and its vinblastine-selected multidrug-resistant variant KB-V1 cells (Akiyama et al., Genetics 11:117-126 (1985)) were kindly provided by Dr. Michael Gottesmann (National Cancer Institute). They were grown as monolayer cultures at 37° C. in 5% CO2 and maintained by regular passage in Dulbecco's minimal essential medium supplemented with 10% heat inactivated fetal bovine serum. KB-V1 cells were maintained in the presence of […] vinblastine.

Data set [2] deals with T1, calf thymus topoisomerase II (Bos taurus, UniProt F1MDU7).
T1 construct: from tissue; host or cells: calf thymus glands
T1 sequence (F1MDU7 1-1532): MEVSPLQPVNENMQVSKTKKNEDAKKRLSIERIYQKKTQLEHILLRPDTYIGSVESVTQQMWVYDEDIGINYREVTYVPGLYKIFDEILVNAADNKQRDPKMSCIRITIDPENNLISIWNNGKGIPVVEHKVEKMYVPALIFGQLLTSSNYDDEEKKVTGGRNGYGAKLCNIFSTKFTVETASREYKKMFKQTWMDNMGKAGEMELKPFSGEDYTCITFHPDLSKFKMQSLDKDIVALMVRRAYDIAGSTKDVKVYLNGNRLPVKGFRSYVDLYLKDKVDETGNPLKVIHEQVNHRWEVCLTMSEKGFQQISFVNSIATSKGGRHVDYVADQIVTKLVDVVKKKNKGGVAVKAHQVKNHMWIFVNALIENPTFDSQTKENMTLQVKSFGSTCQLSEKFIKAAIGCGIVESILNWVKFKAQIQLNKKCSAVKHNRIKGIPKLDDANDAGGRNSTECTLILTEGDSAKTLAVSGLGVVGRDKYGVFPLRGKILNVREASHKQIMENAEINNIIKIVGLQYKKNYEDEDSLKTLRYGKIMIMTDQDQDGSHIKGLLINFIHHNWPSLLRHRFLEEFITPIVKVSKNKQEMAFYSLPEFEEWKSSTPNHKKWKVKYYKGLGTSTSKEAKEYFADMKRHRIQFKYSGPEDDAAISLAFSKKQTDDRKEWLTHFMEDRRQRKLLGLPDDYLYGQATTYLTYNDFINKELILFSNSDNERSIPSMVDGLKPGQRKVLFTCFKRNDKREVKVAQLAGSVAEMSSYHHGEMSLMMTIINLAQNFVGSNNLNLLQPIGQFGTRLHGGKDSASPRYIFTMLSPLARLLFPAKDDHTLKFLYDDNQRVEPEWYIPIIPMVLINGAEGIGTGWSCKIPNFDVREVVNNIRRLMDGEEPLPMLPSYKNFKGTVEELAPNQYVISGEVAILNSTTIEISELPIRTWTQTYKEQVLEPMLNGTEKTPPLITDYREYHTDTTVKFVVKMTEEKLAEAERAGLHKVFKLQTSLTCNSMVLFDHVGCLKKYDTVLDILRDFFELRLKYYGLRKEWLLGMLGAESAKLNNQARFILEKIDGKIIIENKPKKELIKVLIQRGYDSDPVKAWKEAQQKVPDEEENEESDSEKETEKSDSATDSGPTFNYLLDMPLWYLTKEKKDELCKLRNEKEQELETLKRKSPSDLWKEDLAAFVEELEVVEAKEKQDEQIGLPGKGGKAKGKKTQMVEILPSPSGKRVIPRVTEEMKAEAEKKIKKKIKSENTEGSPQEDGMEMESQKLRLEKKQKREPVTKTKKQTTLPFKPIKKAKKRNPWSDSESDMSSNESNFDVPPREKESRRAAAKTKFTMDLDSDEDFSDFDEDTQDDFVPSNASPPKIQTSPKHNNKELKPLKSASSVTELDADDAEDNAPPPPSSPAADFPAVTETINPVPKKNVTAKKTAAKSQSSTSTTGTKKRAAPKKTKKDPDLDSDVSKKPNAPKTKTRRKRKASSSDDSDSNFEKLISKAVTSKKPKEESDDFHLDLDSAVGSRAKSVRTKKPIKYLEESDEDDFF
Nature of the data set: Topo II-mediated DNA cleavage assay. The format is biochemical. To be noted: concentration relative to VM26 (= 1) producing the same cleavage on plasmid DNA in the presence of calf thymus topoisomerase II. The text has this: The plasmid pET11a and the E. coli strain BL21(DE3) used for enzyme expression were purchased from Novagen. IPTG was purchased from Sigma. The ECL system used for the Western blotting analysis of bacterial lysates was from Amersham (UK). All the restriction enzymes and Vent polymerase were from New England Biolabs. Mammalian topoisomerase II was isolated from calf thymus glands according to the published procedure (Halligan et al., J. Biol. Chem. 260:2475-2482 (1985)). The single copy yeast plasmids YCpGAL1 expressing various topoisomerase I genes in JN2-134 yeast strain were a kind gift of Dr. M-A. Bjornsti (Thomas Jefferson University, Philadelphia, Pa.). All bacterial and yeast media were from Difco (Detroit, Mich.), while cell culture media were purchased from Gibco-BRL (Gaithersburg, Md.).
(§2) Cleavage assays for the recombinant topoisomerases I and calf thymus topoisomerases I and II were done as described (Liu et al., J. Biol. Chem. 258:15365-15370 (1983)). The plasmid YEpG DNA used for the cleavage assays was prepared and labeled at its 3'-end using the published procedures.

The next data set has as its target T2, human topoisomerase I (Homo sapiens, UniProt P11387).
T2 construct: 15 amino acid fusion from pET-11a vector (N); made in house; host or cells: E. coli BL21(DE3)
T2 sequence (P11387 1-765): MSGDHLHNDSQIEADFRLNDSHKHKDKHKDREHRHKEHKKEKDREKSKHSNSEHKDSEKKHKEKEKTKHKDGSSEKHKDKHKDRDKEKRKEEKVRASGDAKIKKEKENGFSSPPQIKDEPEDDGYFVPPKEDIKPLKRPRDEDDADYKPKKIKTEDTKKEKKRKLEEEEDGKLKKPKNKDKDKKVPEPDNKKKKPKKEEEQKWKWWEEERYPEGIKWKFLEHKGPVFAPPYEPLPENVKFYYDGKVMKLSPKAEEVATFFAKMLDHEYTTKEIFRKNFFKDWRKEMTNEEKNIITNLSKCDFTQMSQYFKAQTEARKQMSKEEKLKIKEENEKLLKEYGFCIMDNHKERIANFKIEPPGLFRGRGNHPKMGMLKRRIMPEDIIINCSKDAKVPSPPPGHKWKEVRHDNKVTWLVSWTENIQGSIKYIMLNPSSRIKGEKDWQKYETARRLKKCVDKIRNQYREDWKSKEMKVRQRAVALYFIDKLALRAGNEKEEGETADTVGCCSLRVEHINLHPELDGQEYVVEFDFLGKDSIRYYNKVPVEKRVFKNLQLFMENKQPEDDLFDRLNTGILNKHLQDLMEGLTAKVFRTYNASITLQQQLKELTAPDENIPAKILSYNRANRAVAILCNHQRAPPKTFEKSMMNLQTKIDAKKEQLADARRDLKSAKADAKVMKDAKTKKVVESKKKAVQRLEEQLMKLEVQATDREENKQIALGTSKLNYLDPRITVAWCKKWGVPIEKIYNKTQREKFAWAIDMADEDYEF
In words: Topo I-mediated DNA cleavage assay. The format is biochemical.
Excerpt: To obtain large quantity of human topoisomerase I, the human topoisomerase I cDNA was cloned into the pET-11a vector, in which transcription of the cDNA is under the control of the inducible T7 promoter (Studier et al., Methods in Enzymol., Vol. 185:60-89, San Diego: Academic Press (1990)). Briefly, a 3.4 kb DNA fragment containing the entire coding sequence of human topoisomerase I and approximately 1 kb of untranslated region downstream of the stop codon was isolated from the plasmid YCpGAL1-hTOP1 (Bjornsti et al., Cancer Res. 49:6318-6323 (1989)) by cutting at the BamHI and EcoRI sites. The vector pET-11a was cut with the same restriction enzymes, dephosphorylated and ligated to the insert in the proper reading frame downstream of the vector cloning site. […] Since the translational start in pET is positioned at an upstream NdeI site, the expressed topoisomerase I has a 15 amino acid fusion at its N-terminus. pET1B was then transformed into E. coli BL21 (DE3), and, upon induction with 0.4 mM IPTG for 1 hour, the bacterial lysate was analyzed by 10% SDS-PAGE. […] Briefly, E. coli cells were lysed by repeated sonic bursts. The sonic extract was made in 1 M NaCl and 6% polyethylene glycol (PEG) to remove nucleic acids. The PEG supernatant was chromatographed directly on a hydroxyapatite column. […] The eluted enzyme was dialyzed against 50% glycerol, 30 mM potassium phosphate (pH 7.0), 1 mM dithiothreitol (DTT) and 0.1 mM EDTA and stored at -20° C.
as §2

Data set [3] concerns camptothecin-resistant CPT-K5 cells. In words: MTT-microtiter plate tetrazolinium cytotoxicity assay (MTA), CPT-K5. The format is cell-based, human. The method, then:
as §1

[4] abbreviates: Homo sapiens, RPMI 8402, 96 h, read-out: Cytotoxicity IC50, RPMI.
Setting [5] is: concentration relative to camptothecin (CPT = 1) producing the same cleavage on plasmid DNA in the presence of human topoisomerase I.
[6] abbreviates: Homo sapiens, CPT-K5, 96 h, read-out: Cytotoxicity IC50, CPT-K5.

Where two headings read alike, the source gives them in different places.

Turning to `COc1cc2c(cc1OC)-c1cc3ccccc3nc1CC2` [Compound 13d, 2,3-Dimethoxy-5,6-dihydrobenz[a]acridine], the IC50 is 1 µM in data set [1] (setting [4]) and 8.6 µM in data set [3] (setting [6]). Also, the “Topo II-mediated DNA cleavage (REC, Relative Effective Concentration)” value in data set [2] is above 1000. Besides, the “Topo I-mediated DNA cleavage (REC, Relative Effective Concentration)” value at human topoisomerase I (setting [5]) came to 100.
With `COc1cc2c(cc1OC)-c1cc3cc4c(cc3nc1CC2)OCO4` [Compound 13b, 2,3,-Dimethoxy-9,10-methylenedioxy-5,6-dihydrobenz[a]acridine], the IC50 in data set [1] (setting [4]) amounted to 9 µM; in data set [3] (setting [6]), 14.9 µM. Also, the “Topo II-mediated DNA cleavage (REC, Relative Effective Concentration)” value in data set [2] is listed as above 1000. Moreover, on human topoisomerase I (setting [5]), the “Topo I-mediated DNA cleavage (REC, Relative Effective Concentration)” value is given as 100.
For the compound `COc1cc2ccc3c(C)c4cc(OC)c(OC)cc4nc3c2cc1OC` [Compound 7, 2,3,9,10-Tetramethoxy-7-methylbenz[c]acridine], the IC50 in data set [1] (setting [4]) turned out to be 7 µM; in data set [3] (setting [6]) it was 5.5 µM. In data set [2], the “Topo II-mediated DNA cleavage (REC, Relative Effective Concentration)” value was above 1000. The “Topo I-mediated DNA cleavage (REC, Relative Effective Concentration)” value at human topoisomerase I (setting [5]) is recorded as above 1000.
With `COc1cc2cc3c4cc(OC)c(OC)cc4cc[n+]3c(C)c2cc1OC` [Coralyne, reference compound], the IC50 was 4.9 µM in data set [1] (setting [4]) and 20 µM in data set [3] (setting [6]). Further, the “Topo II-mediated DNA cleavage (REC, Relative Effective Concentration)” value in data set [2] is listed as above 1000. Besides, the “Topo I-mediated DNA cleavage (REC, Relative Effective Concentration)” value on human topoisomerase I (setting [5]) is on record as 1.
On the same counts, the results for `COc1cc2ccc3nc4ccccc4cc3c2cc1OC` [Compound 14d, 2,3-Dimethoxy-benz[a]acridine] are 10.4 µM, 13.8 µM, above 1000 and 1000.
For `COc1cc2cc3c(nc2cc1OC)CCc1c-3ccc(OC)c1OC` [Compound 13f, 5,6-Dihydro-3,4,9,10-tetramethoxybenz[a]acridine], the IC50 in data set [1] (setting [4]) and in data set [3] (setting [6]) was 14.2 µM each time. In data set [2], the “Topo II-mediated DNA cleavage (REC, Relative Effective Concentration)” value is given as above 1000. Further, at human topoisomerase I (setting [5]), the “Topo I-mediated DNA cleavage (REC, Relative Effective Concentration)” value is given as 100.
In the case of `COc1cc2cc3c(nc2cc1OC)CCc1ccc(N)cc1-3` [Compound 20, 2-Amino-9,10-dimethoxy-5,6-dihydrobenz[a]acridine], the values for the IC50 in data set [1] (setting [4]) and in data set [3] (setting [6]) were 16.3 µM and above 33 µM, respectively. Further, in data set [2], the “Topo II-mediated DNA cleavage (REC, Relative Effective Concentration)” value is on record as above 1000. Besides, the “Topo I-mediated DNA cleavage (REC, Relative Effective Concentration)” value on human topoisomerase I (setting [5]) is on record as 100.
For the compound “Methylenedioxy-dihydro-demethyl-coralyne [MDD-Coralyne, reference compound]”, the IC50 came out at 8.1 µM in data set [1] (rpmi 8402 cells, 96 h) and 27 µM in data set [3] (cpt-k5 cells, 96 h). At human topoisomerase I (setting [5]), the “Topo I-mediated DNA cleavage (REC, Relative Effective Concentration)” value came to 0.1.
In the case of `COc1cc2ccc3nc4cc5c(cc4cc3c2cc1OC)OCO5` [Compound 14b, 2,3,-Dimethoxy-9,10-methylenedioxybenz[a]acridine], the half-inhibitory concentration (IC50) is 4.5 µM in data set [1] (setting [4]) and 7.5 µM in data set [3] (setting [6]). For the same compound, in data set [2], the “Topo II-mediated DNA cleavage (REC, Relative Effective Concentration)” value is above 1000. The “Topo I-mediated DNA cleavage (REC, Relative Effective Concentration)” value on human topoisomerase I (setting [5]) worked out at 1000.
As to `Oc1cc2c(cc1O)-c1cc3cc(O)c(O)cc3nc1CC2` [Compound 13g, 2,3,9,10-tetrahydroxy-5,6-dihydrobenz[a]acridine], the IC50 is 20.3 µM in data set [1] (setting [4]) and 13.6 µM in data set [3] (setting [6]). The “Topo II-mediated DNA cleavage (REC, Relative Effective Concentration)” value in data set [2] is on record as above 1000. Moreover, the “Topo I-mediated DNA cleavage (REC, Relative Effective Concentration)” value on human topoisomerase I (setting [5]) stood at 1.0.
On the same counts, the results for `COc1cc2c(cc1OC)-c1c(c(C)c3cc(OC)c(OC)cc3[n+]1C)CC2` [Compound 8, 2,3,9,10-Tetramethoxy-7,1 2-dimethyl-5,6-dihydrobenz[c]acridinium methosulfate] are 6.1 µM, 12.2 µM, above 1000 and above 1000.
For the compound `COc1cc(C2c3cc4c(cc3C(OC3OC5COC(c6cccs6)OC5C(O)C3O)C3COC(=O)C23)OCO4)cc(OC)c1O` (stereo not shown) [VM-26, reference compound], the IC50 in data set [1] (setting [4]) worked out at 0.3 µM; in data set [3] (setting [6]), 0.5 µM. Besides, the “Topo I-mediated DNA cleavage (REC, Relative Effective Concentration)” value at human topoisomerase I is recorded as above 1000.
On to `COc1cc2cc3c(ccc4ccccc43)nc2cc1OC` [Compound 14c, 9,10-Dimethoxybenz[a]acridine], for which the figures for the IC50 in data set [1] (setting [4]) and in data set [3] (setting [6]) were 10.4 µM and 31.1 µM, respectively. For the same compound, the “Topo II-mediated DNA cleavage (REC, Relative Effective Concentration)” value in data set [2] was above 1000. For the same compound, the “Topo I-mediated DNA cleavage (REC, Relative Effective Concentration)” value at human topoisomerase I (setting [5]) is above 1000.
`COc1cc2cc3c(nc2cc1OC)CCc1cc(Cl)ccc1-3` [Compound 13j, 3-Chloro-9,10-dimethoxy-5,6-dihydrobenz[a]acridine]: the IC50 in data set [1] (setting [4]) was found to be 9.2 µM; in data set [3] (setting [6]), 15.4 µM. Further, the “Topo II-mediated DNA cleavage (REC, Relative Effective Concentration)” value in data set [2] was above 1000. For the same compound, the “Topo I-mediated DNA cleavage (REC, Relative Effective Concentration)” value on human topoisomerase I (setting [5]) is reported as 10.
On the same counts, the results for `COc1cc2c(cc1OC)-c1cc3cc(OC)c(OC)cc3nc1CC2` [Compound 13a, 2,3,9,10-Tetramethoxy-5,6-dihydrobenz[a]acridine] are 7.1 µM, 7.1 µM, above 1000 and 100.
